From the supplement of paper PMC10307832

Columns and labels:
Assay in all cases: relative viability (nuclei count vs DMSO), 5 days (fraction); higher = more cells survive
BEN = test system: BEN
Outline: (§1)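 Relative viability equals treated-well nuclei counts divided by vehicle-well nuclei counts. Counts came from 4× images of lung cancer cell lines grown in 1536-well plates for 5 days after pin-tool dosing on the day after seeding. Dosing used one drug alone or a fixed anchor-drug dose plus five library-drug doses (not always all listed) in √10 steps, and values are medians of duplicate plates.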

NCI-H650 = test system: NCI-H650
Outline: as §1

NCI-H441 = test system: NCI-H441
Outline: as §1

NCI-H2023 = test system: NCI-H2023
Outline: as §1

NCI-H520 = test system: NCI-H520
Outline: as §1

NCI-H1650 = test system: NCI-H1650
Outline: as §1

201T = test system: 201T
Outline: as §1

ABC-1 = test system: ABC-1
Outline: as §1

NCI-H1915 = test system: NCI-H1915
Outline: as §1

NCI-H661 = test system: NCI-H661
Outline: as §1

NCI-H596 = test system: NCI-H596
Outline: as §1

A-427 = test system: A-427
Outline: as §1

CAL-12T = test system: CAL-12T
Outline: as §1

NCI-H1651 = test system: NCI-H1651
Outline: as §1

NCI-H1944 = test system: NCI-H1944
Outline: as §1

NCI-H460 = test system: NCI-H460
Outline: as §1

PC-3 [JPC-3] = test system: PC-3 [JPC-3]
Outline: as §1

NCI-H727 = test system: NCI-H727
Outline: as §1

LC-2-ad = test system: LC-2-ad
Outline: as §1

LCLC-97TM1 = test system: LCLC-97TM1
Outline: as §1

NCI-H2087 = test system: NCI-H2087
Outline: as §1

H3255 = test system: H3255
Outline: as §1

## Cc1sc2c(c1C)C(c1ccc(Cl)cc1)=N[C@@H](CC(=O)OC(C)(C)C)c1nnc(C)n1-2 [JQ1] + O=C(CCCCCCC(=O)Nc1ccccc1)NO [Vorinostat] (partner 1 µM)
BEN; first compound 0.04 µM
  relative viability: 0.503
BEN; first compound 0.1265 µM
  relative viability: 0.545
BEN; first compound 0.4 µM
  relative viability: 0.494
BEN; first compound 1.265 µM
  relative viability: 0.456
BEN; first compound 4 µM
  relative viability: 0.351
NCI-H650; first compound 0.04 µM
  relative viability: 0.43
NCI-H650; first compound 0.1265 µM
  relative viability: 0.295
NCI-H650; first compound 0.4 µM
  relative viability: 0.425
NCI-H650; first compound 1.265 µM
  relative viability: 0.242
NCI-H650; first compound 4 µM
  relative viability: 0.192
NCI-H441; first compound 0.04 µM
  relative viability: 0.64
NCI-H441; first compound 0.1265 µM
  relative viability: 0.943
NCI-H441; first compound 0.4 µM
  relative viability: 0.886
NCI-H441; first compound 1.265 µM
  relative viability: 0.303
NCI-H441; first compound 4 µM
  relative viability: 0.199
NCI-H2023; first compound 0.04 µM
  relative viability: 0.6
NCI-H2023; first compound 0.1265 µM
  relative viability: 0.372
NCI-H2023; first compound 0.4 µM
  relative viability: 0.44
NCI-H2023; first compound 1.265 µM
  relative viability: 0.156
NCI-H2023; first compound 4 µM
  relative viability: 0.106
NCI-H520; first compound 0.04 µM
  relative viability: 0.658
NCI-H520; first compound 0.1265 µM
  relative viability: 0.577
NCI-H520; first compound 0.4 µM
  relative viability: 0.423
NCI-H520; first compound 1.265 µM
  relative viability: 0.234
NCI-H520; first compound 4 µM
  relative viability: 0.225
NCI-H1650; first compound 0.04 µM
  relative viability: 0.6
NCI-H1650; first compound 0.1265 µM
  relative viability: 0.438
NCI-H1650; first compound 0.4 µM
  relative viability: 0.475
NCI-H1650; first compound 1.265 µM
  relative viability: 0.292
NCI-H1650; first compound 4 µM
  relative viability: 0.177
201T; first compound 0.04 µM
  relative viability: 0.952
201T; first compound 0.4 µM
  relative viability: 0.73
201T; first compound 1.265 µM
  relative viability: 0.46
201T; first compound 4 µM
  relative viability: 0.367
ABC-1; first compound 0.04 µM
  relative viability: 0.963
ABC-1; first compound 0.1265 µM
  relative viability: 0.557
ABC-1; first compound 0.4 µM
  relative viability: 0.703
ABC-1; first compound 1.265 µM
  relative viability: 0.41
ABC-1; first compound 4 µM
  relative viability: 0.296
NCI-H1915; first compound 0.04 µM
  relative viability: 0.508
NCI-H1915; first compound 0.4 µM
  relative viability: 0.519
NCI-H1915; first compound 1.265 µM
  relative viability: 0.299
NCI-H1915; first compound 4 µM
  relative viability: 0.203
NCI-H661; first compound 0.04 µM
  relative viability: 0.766
NCI-H661; first compound 0.1265 µM
  relative viability: 0.809
NCI-H661; first compound 0.4 µM
  relative viability: 0.677
NCI-H661; first compound 1.265 µM
  relative viability: 0.493
NCI-H661; first compound 4 µM
  relative viability: 0.456
NCI-H596; first compound 0.04 µM
  relative viability: 0.683
NCI-H596; first compound 0.1265 µM
  relative viability: 0.643
NCI-H596; first compound 0.4 µM
  relative viability: 0.436
NCI-H596; first compound 1.265 µM
  relative viability: 0.292
NCI-H596; first compound 4 µM
  relative viability: 0.311
A-427; first compound 0.04 µM
  relative viability: 0.861
A-427; first compound 0.1265 µM
  relative viability: 0.748
A-427; first compound 0.4 µM
  relative viability: 0.789
A-427; first compound 1.265 µM
  relative viability: 0.594
A-427; first compound 4 µM
  relative viability: 0.429
CAL-12T; first compound 0.04 µM
  relative viability: 0.853
CAL-12T; first compound 0.1265 µM
  relative viability: 0.838
CAL-12T; first compound 0.4 µM
  relative viability: 0.685
CAL-12T; first compound 1.265 µM
  relative viability: 0.238
CAL-12T; first compound 4 µM
  relative viability: 0.217
NCI-H1651; first compound 0.04 µM
  relative viability: 0.615
NCI-H1651; first compound 0.1265 µM
  relative viability: 0.472
NCI-H1651; first compound 0.4 µM
  relative viability: 0.445
NCI-H1651; first compound 1.265 µM
  relative viability: 0.416
NCI-H1651; first compound 4 µM
  relative viability: 0.307
NCI-H1944; first compound 0.04 µM
  relative viability: 0.524
NCI-H1944; first compound 0.1265 µM
  relative viability: 0.405
NCI-H1944; first compound 0.4 µM
  relative viability: 0.325
NCI-H1944; first compound 1.265 µM
  relative viability: 0.323
NCI-H1944; first compound 4 µM
  relative viability: 0.29
NCI-H460; first compound 0.04 µM
  relative viability: 0.672
NCI-H460; first compound 0.1265 µM
  relative viability: 0.621
NCI-H460; first compound 0.4 µM
  relative viability: 0.18
NCI-H460; first compound 1.265 µM
  relative viability: 0.0632
NCI-H460; first compound 4 µM
  relative viability: 0.0462
PC-3 [JPC-3]; first compound 0.04 µM
  relative viability: 0.816
PC-3 [JPC-3]; first compound 0.1265 µM
  relative viability: 0.716
PC-3 [JPC-3]; first compound 0.4 µM
  relative viability: 0.67
PC-3 [JPC-3]; first compound 1.265 µM
  relative viability: 0.537
PC-3 [JPC-3]; first compound 4 µM
  relative viability: 0.377
NCI-H727; first compound 0.04 µM
  relative viability: 1.47
NCI-H727; first compound 0.1265 µM
  relative viability: 1.14
NCI-H727; first compound 0.4 µM
  relative viability: 0.954
NCI-H727; first compound 1.265 µM
  relative viability: 1.08
NCI-H727; first compound 4 µM
  relative viability: 0.621
LC-2-ad; first compound 0.04 µM
  relative viability: 0.699
LC-2-ad; first compound 0.1265 µM
  relative viability: 0.396
LC-2-ad; first compound 0.4 µM
  relative viability: 0.624
LC-2-ad; first compound 1.265 µM
  relative viability: 0.273
LC-2-ad; first compound 4 µM
  relative viability: 0.3
LCLC-97TM1; first compound 0.04 µM
  relative viability: 0.603
LCLC-97TM1; first compound 0.1265 µM
  relative viability: 0.532
LCLC-97TM1; first compound 0.4 µM
  relative viability: 0.25
LCLC-97TM1; first compound 1.265 µM
  relative viability: 0.121
LCLC-97TM1; first compound 4 µM
  relative viability: 0.0762
NCI-H2087; first compound 0.04 µM
  relative viability: 0.63
NCI-H2087; first compound 0.1265 µM
  relative viability: 0.38
NCI-H2087; first compound 0.4 µM
  relative viability: 0.668
NCI-H2087; first compound 1.265 µM
  relative viability: 0.316
NCI-H2087; first compound 4 µM
  relative viability: 0.127
H3255; first compound 0.04 µM
  relative viability: 0.896
H3255; first compound 0.4 µM
  relative viability: 1.01
H3255; first compound 1.265 µM
  relative viability: 0.526
H3255; first compound 4 µM
  relative viability: 0.428
